Source: PubChem BioAssay AID248 (DTP/NCI, 2004)
Toxic doses and inconclusive results are not listed. Rule as the data show it: active = T/C of 150% or more; inactive = T/C below 125%.

Test system: L1210 leukemia ip in BDF1 mice, survival T/C
Test: NCI In Vivo Anticancer Drug Screen. Data for tumor model L1210 Leukemia (intraperitoneal) in B6D2F1 (BDF1) mice
Conditions: endpoint: mean survival time, higher = longer survival
In short: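 Ratio derived from survival: compound-dosed mice over vehicle-dosed mice, all bearing a transplantable tumor.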

[1] = dose: 100.0 mg/kg/injection, schedule: Q04DX003 (ip), vehicle: Klucel (hydroxypropylcellulose) (HPC)
[2] = dose: 200.0 mg/kg/injection, schedule: Q04DX003 (ip), vehicle: Klucel (hydroxypropylcellulose) (HPC)
[3] = dose: 400.0 mg/kg/injection, schedule: Q04DX003 (ip), vehicle: Klucel (hydroxypropylcellulose) (HPC)
[4] = dose: 100.0 mg/kg/injection, schedule: Q04DX003 (ip), vehicle: saline with Tween-80
[5] = dose: 200.0 mg/kg/injection, schedule: Q04DX003 (ip), vehicle: saline with Tween-80
[6] = dose: 400.0 mg/kg/injection, schedule: Q04DX003 (ip), vehicle: saline with Tween-80
[7] = dose: 100.0 mg/kg/injection, schedule: Q04DX003 (ip), vehicle: saline
[8] = dose: 200.0 mg/kg/injection, schedule: Q04DX003 (ip), vehicle: saline
[9] = dose: 100.0 mg/kg/injection, schedule: Q01DX009 (ip), vehicle: Klucel (hydroxypropylcellulose) (HPC)
[10] = dose: 200.0 mg/kg/injection, schedule: Q01DX009 (ip), vehicle: Klucel (hydroxypropylcellulose) (HPC)
[11] = dose: 400.0 mg/kg/injection, schedule: Q01DX009 (ip), vehicle: Klucel (hydroxypropylcellulose) (HPC)
[12] = dose: 100.0 mg/kg/injection, schedule: Q01DX009 (ip), vehicle: saline with Tween-80
[13] = dose: 200.0 mg/kg/injection, schedule: Q01DX009 (ip), vehicle: saline with Tween-80
[14] = dose: 400.0 mg/kg/injection, schedule: Q01DX009 (ip), vehicle: saline with Tween-80
[15] = dose: 50.0 mg/kg/injection, schedule: Q01DX001 (ip), vehicle: carboxymethylcellulose (CMC)
[16] = dose: 50.0 mg/kg/injection, schedule: Q01DX009 (ip), vehicle: Klucel (hydroxypropylcellulose) (HPC)
[17] = dose: 100.0 mg/kg/injection, schedule: Q01DX001 (ip), vehicle: saline
[18] = dose: 100.0 mg/kg/injection, schedule: Q01DX009 (ip), vehicle: saline
[19] = dose: 200.0 mg/kg/injection, schedule: Q01DX001 (ip), vehicle: saline
[20] = dose: 400.0 mg/kg/injection, schedule: Q01DX001 (ip), vehicle: saline
[21] = dose: 50.0 mg/kg/injection, schedule: Q01DX001 (ip), vehicle: saline

Measured: T/C

COc1c(C)ccc(/C=N/NC(=O)c2ccncc2)c1C
inactive: dose: 100.0 mg/kg/injection, schedule: Q04DX002 (ip), vehicle: carboxymethylcellulose (CMC) 95 % of control | dose: 200.0 mg/kg/injection, schedule: Q04DX002 (ip), vehicle: carboxymethylcellulose (CMC) 95 % of control | dose: 400.0 mg/kg/injection, schedule: Q04DX002 (ip), vehicle: carboxymethylcellulose (CMC) 92 % of control

Nc1nc(Cl)c(Cl)nc1N
inactive: [1] 95 % of control | [2] 100 % of control | [3] 95 % of control

CCCCCNC(=O)CCC(=O)NCCCCC
inactive: dose: 100.0 mg/kg/injection, schedule: Q01DX001 (ip), vehicle: other 98 % of control | dose: 200.0 mg/kg/injection, schedule: Q01DX001 (ip), vehicle: other 98 % of control | dose: 400.0 mg/kg/injection, schedule: Q01DX001 (ip), vehicle: other 98 % of control

COc1cc(C)c(O)c(C)c1C
inactive: [4] 95 % of control | [5] 95 % of control | [6] 95 % of control

CC(C)C(C(=O)O)N(C)N=O (stereo unspecified)
inactive: dose: 50.0 mg/kg/injection, schedule: Q04DX003 (ip), vehicle: saline 94 % of control | dose: 100.0 mg/kg/injection, schedule: Q01DX001 (ip), vehicle: acetone 101 % of control | [7] 97 % of control | dose: 200.0 mg/kg/injection, schedule: Q01DX001 (ip), vehicle: acetone 103 % of control | [8] 94 % of control

CC(=O)[C@@]12OC(C)(C)O[C@@H]1C[C@H]1[C@@H]3C[C@H](C)C4=CC(=O)CC[C@]4(C)[C@H]3CC[C@@]12C
inactive: dose: 100.0 mg/kg/injection, schedule: Q01DX001 (ip), vehicle: steriod suspending solution 103 % of control | dose: 100.0 mg/kg/injection, schedule: Q04DX003 (ip), vehicle: steriod suspending solution 100 % of control | dose: 200.0 mg/kg/injection, schedule: Q01DX001 (ip), vehicle: steriod suspending solution 98 % of control | dose: 200.0 mg/kg/injection, schedule: Q04DX003 (ip), vehicle: steriod suspending solution 98 % of control | dose: 400.0 mg/kg/injection, schedule: Q01DX001 (ip), vehicle: steriod suspending solution 97 % of control | dose: 400.0 mg/kg/injection, schedule: Q04DX003 (ip), vehicle: steriod suspending solution 97 % of control

O=C(O)c1c2ccccc2cc2ccccc12
inactive: [9] 105 % of control | [10] 107 % of control | [11] 104 % of control

OC(CBr)c1ccc(Cl)cc1 (stereo unspecified)
inactive: [12] 96 % of control | [4] 98 % of control | [13] 96 % of control | [5] 104 % of control | [6] 89 % of control

COC(=O)C1(C)CCCC2(C)C1CCC13OCC(CC21)C(=C(C)C)C3OC(C)=O (stereo unspecified)
inactive: [12] 93 % of control | [13] 88 % of control | [14] 90 % of control

CCCCCCN(CCCCCC)CC(=O)Nc1ccc(S(=O)(=O)c2ccc(NC(=O)CN(CCCCCC)CCCCCC)cc2)cc1
inactive: dose: 25.0 mg/kg/injection, schedule: Q01DX001 (ip), vehicle: carboxymethylcellulose (CMC) 114 % of control | [15] 97 % of control

S=P(NCCNP(=S)(N1CC1)N1CC1)(N1CC1)N1CC1
inactive: dose: 1.5 mg/kg/injection, schedule: Q01DX015 (ip), vehicle: saline 96 % of control | dose: 3.0 mg/kg/injection, schedule: Q01DX015 (ip), vehicle: saline 98 % of control | dose: 6.0 mg/kg/injection, schedule: Q01DX015 (ip), vehicle: saline 101 % of control | dose: 12.0 mg/kg/injection, schedule: Q01DX009 (ip), vehicle: carboxymethylcellulose (CMC) 104 % of control | dose: 12.0 mg/kg/injection, schedule: Q01DX015 (ip), vehicle: saline 102 % of control | dose: 12.5 mg/kg/injection, schedule: Q01DX009 (ip), vehicle: Klucel (hydroxypropylcellulose) (HPC) 108 % of control | dose: 12.5 mg/kg/injection, schedule: Q01DX009 (ip), vehicle: saline 112 % of control | dose: 25.0 mg/kg/injection, schedule: Q01DX009 (ip), vehicle: Klucel (hydroxypropylcellulose) (HPC) 120 % of control | dose: 25.0 mg/kg/injection, schedule: Q01DX009 (ip), vehicle: carboxymethylcellulose (CMC) 121 % of control | [16] 97 % of control | dose: 50.0 mg/kg/injection, schedule: Q01DX009 (ip), vehicle: carboxymethylcellulose (CMC) 115 % of control | [17] 106 % of control | dose: 100.0 mg/kg/injection, schedule: Q01DX009 (ip), vehicle: carboxymethylcellulose (CMC) 109 % of control | [18] 120 % of control | [19] 104 % of control | [20] 120 % of control

CN(C)S(=O)(=O)Oc1cccc([N+](=O)[O-])c1
inactive: dose: 25.0 mg/kg/injection, schedule: Q04DX003 (ip), vehicle: saline with Tween-80 100 % of control | dose: 50.0 mg/kg/injection, schedule: Q04DX003 (ip), vehicle: saline with Tween-80 104 % of control | [4] 100 % of control

Cc1cc(C)nc(SCC(=O)O)n1
inactive: [15] 89 % of control | dose: 100.0 mg/kg/injection, schedule: Q01DX001 (ip), vehicle: carboxymethylcellulose (CMC) 105 % of control | dose: 200.0 mg/kg/injection, schedule: Q01DX001 (ip), vehicle: carboxymethylcellulose (CMC) 96 % of control | dose: 400.0 mg/kg/injection, schedule: Q01DX001 (ip), vehicle: carboxymethylcellulose (CMC) 105 % of control

Cc1ccc(S(=O)(=O)OCC(CO)(CO)[N+](=O)[O-])cc1
inactive: dose: 50.0 mg/kg/injection, schedule: Q01DX009 (ip), vehicle: saline 90 % of control | [18] 92 % of control | [7] 97 % of control | dose: 200.0 mg/kg/injection, schedule: Q01DX009 (ip), vehicle: saline 90 % of control | [8] 88 % of control

CCN(CC)S(=O)(=O)/C=C\c1ccccc1
inactive: dose: 50.0 mg/kg/injection, schedule: Q04DX003 (ip), vehicle: Klucel (hydroxypropylcellulose) (HPC) 96 % of control | dose: 100.0 mg/kg/injection, schedule: Q01DX001 (ip), vehicle: Klucel (hydroxypropylcellulose) (HPC) 98 % of control | [1] 107 % of control | dose: 200.0 mg/kg/injection, schedule: Q01DX001 (ip), vehicle: Klucel (hydroxypropylcellulose) (HPC) 107 % of control | [2] 102 % of control | dose: 400.0 mg/kg/injection, schedule: Q01DX001 (ip), vehicle: Klucel (hydroxypropylcellulose) (HPC) 102 % of control | [3] 104 % of control

O=C(c1cccs1)c1cccs1
inactive: dose: 50.0 mg/kg/injection, schedule: Q01DX009 (ip), vehicle: saline with Tween-80 98 % of control | [12] 100 % of control | [4] 102 % of control | [13] 94 % of control | [5] 107 % of control | [14] 96 % of control | [6] 101 % of control

Cc1ccc2[nH]c3c(c2c1)CCCC3
inactive: [21] 101 % of control | [17] 101 % of control | [19] 107 % of control | [20] 101 % of control

CCN(CC)C(C)=O
inactive: [21] 87 % of control | [19] 86 % of control | [20] 86 % of control

Cn1c(N)c(N=CC2CCCCC2)c(=O)n(C)c1=O
inactive: [17] 100 % of control | [19] 100 % of control | [20] 102 % of control

Cn1nc(NC(=O)C(C)(C)C)c(C#N)c1C#N
inactive: dose: 50.0 mg/kg/injection, schedule: Q04DX002 (ip), vehicle: saline with Tween-80 95 % of control | dose: 100.0 mg/kg/injection, schedule: Q04DX002 (ip), vehicle: saline with Tween-80 95 % of control | dose: 200.0 mg/kg/injection, schedule: Q04DX002 (ip), vehicle: saline with Tween-80 98 % of control

O=C(CCCC(=O)N/N=C/c1ccc2c(c1)CCC2)N/N=C/c1ccc2c(c1)CCC2
inactive: [4] 95 % of control | [5] 97 % of control | [6] 90 % of control

CC(C)(C)c1ccc(SSc2ccc(C(C)(C)C)cc2)cc1
inactive: [16] 94 % of control | [9] 94 % of control | [1] 94 % of control | [10] 98 % of control | [2] 91 % of control | [11] 96 % of control | [3] 92 % of control
